Experimental data published in US11000033B2, “Ketone or oxime compound, and herbicide” (NISSAN CHEMICAL CORPORATION, priority 2014, dated 2021).

Assays:
Format in all cases: in vivo
[1] = tested on: directly sowed rice plant; experiment: Test Example 3: effect on crop by foliage application, Wagner pot (symbol b); settings: application herbicide amount 320 g/ha
In short: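 Steps: fill a 1/10000-are Wagner pot with alluvial soil; add water and mix to submerge at 0.1–0.5 cm depth; sow rice plus Echinochloa crus-galli var. crus-galli, Leptochloa chinensis and Cyperus difformis; grow in a 25–30 °C greenhouse.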

Digitaria ciliaris [2] = experiment: Test Example 4: herbicidal effect by soil treatment (symbol F); settings: 320 g/ha
In short: (§1)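 Seeds were sown in sterilized diluvial soil, covered with about 1.5 cm of soil, and the soil surface was sprayed with a water-diluted emulsion of the compound at a predetermined rate. Plants grew in a greenhouse at 25° C. to 30° C.; effects were scored visually 3 weeks after application.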

[3] = tested on: Echinochloa crus-galli var. crus-galli; experiment: Test Example 4: herbicidal effect by soil treatment (symbol H); settings: 320 g/ha
In short: as §1

Alopecurus myosuroides = experiment: Test Example 4: herbicidal effect by soil treatment (symbol J); settings: 320 g/ha
In short: as §1

Lolium multiflorum Lam. = experiment: Test Example 4: herbicidal effect by soil treatment (symbol K); settings: 320 g/ha
In short: as §1

Stellaria media [4] = experiment: Test Example 4: herbicidal effect by soil treatment (symbol P); settings: 320 g/ha
In short: as §1

Galium spurium [5] = experiment: Test Example 4: herbicidal effect by soil treatment (symbol Q); settings: 320 g/ha
In short: as §1

Veronica persica [6] = experiment: Test Example 4: herbicidal effect by soil treatment (symbol R); settings: 320 g/ha
In short: as §1

corn = experiment: Test Example 4: effect on crop by soil treatment (symbol c); settings: 320 g/ha
In short: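 The test used sterilized diluvial soil. Seed was set down in spots and overlaid with about 1.5 cm of soil before growth in a greenhouse kept at 25° C. to 30° C.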

soybean = experiment: Test Example 4: effect on crop by soil treatment (symbol d); settings: 320 g/ha
In short: (§2)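 Greenhouse culture at 25° C. to 30° C. followed sowing of seed in spots on sterilized diluvial soil with a soil cover close to 1.5 cm thick.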

rice = experiment: Test Example 4: effect on crop by soil treatment (symbol b); settings: 320 g/ha
In short: as §2

beet [7] = experiment: Test Example 4: effect on crop by soil treatment (symbol f); settings: 320 g/ha
In short: as §2

rapeseed = experiment: Test Example 4: effect on crop by soil treatment (symbol g); settings: 320 g/ha
In short: as §2

Digitaria ciliaris [8] = experiment: Test Example 5: herbicidal effect by foliage application, plastic box (symbol F); settings: 320 g/ha, 3 weeks after application
In short: (§3)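 Sowing in sterilized diluvial soil, 14 days' greenhouse growth at 25° C. to 30° C., then uniform small-sprayer foliar application of aqueous emulsion dilution; plants scored three weeks afterwards.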

Setaria viridis = experiment: Test Example 5: herbicidal effect by foliage application, plastic box (symbol G); settings: 320 g/ha, 3 weeks after application
In short: as §3

Avena fatua = experiment: Test Example 5: herbicidal effect by foliage application, plastic box (symbol I); settings: 320 g/ha, 3 weeks after application
In short: as §3

Apera spica-venti = experiment: Test Example 5: herbicidal effect by foliage application, plastic box (symbol L); settings: 320 g/ha, 3 weeks after application
In short: as §3

Abutilon theophrasti = experiment: Test Example 5: herbicidal effect by foliage application, plastic box (symbol M); settings: 320 g/ha, 3 weeks after application
In short: as §3

Chenopodium album = experiment: Test Example 5: herbicidal effect by foliage application, plastic box (symbol O); settings: 320 g/ha, 3 weeks after application
In short: as §3

Stellaria media [9] = experiment: Test Example 5: herbicidal effect by foliage application, plastic box (symbol P); settings: 320 g/ha, 3 weeks after application
In short: as §3

Galium spurium [10] = experiment: Test Example 5: herbicidal effect by foliage application, plastic box (symbol Q); settings: 320 g/ha, 3 weeks after application
In short: as §3

Veronica persica [11] = experiment: Test Example 5: herbicidal effect by foliage application, plastic box (symbol R); settings: 320 g/ha, 3 weeks after application
In short: as §3

rice plant = experiment: Test Example 5: effect on crop by foliage application, plastic box (symbol b); settings: 320 g/ha, 3 weeks after application
In short: (§4)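 In a plastic box 7 cm deep filled with sterilized diluvial soil, seeds of crops and weeds such as Digitaria ciliaris, Avena fatua and Amaranthus retroflexus are sown in spots and covered with about 1.5 cm of soil before greenhouse growth at 25–30° C.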

wheat = experiment: Test Example 5: effect on crop by foliage application, plastic box (symbol e); settings: 320 g/ha, 3 weeks after application
In short: as §4

beet [12] = experiment: Test Example 5: effect on crop by foliage application, plastic box (symbol f); settings: 320 g/ha, 3 weeks after application
In short: as §4

CC(CC1CC(O)=C(c2c(C)cc(C)cc2C)C1=O)=NOCc1ccc(Cl)cc1 (stereo not shown) [1-137]
effect on crop b (directly sowed rice plant), grade 0-5 [1]: 5 (Herbicidal ratio of 90% or more (almost completely withered)) | F: Digitaria ciliaris, herbicidal effect grade (Digitaria ciliaris [2]): 5 (Herbicidal ratio of 90% or more (almost completely withered)) | H: Echinochloa crus-galli var. crus-galli, herbicidal effect grade [3]: 5 (Herbicidal ratio of 90% or more (almost completely withered)) | J: Alopecurus myosuroides, herbicidal effect grade (Alopecurus myosuroides): 5 (Herbicidal ratio of 90% or more (almost completely withered)) | K: Lolium multiflorum Lam., herbicidal effect grade (Lolium multiflorum Lam.): 5 (Herbicidal ratio of 90% or more (almost completely withered)) | P: Stellaria media, herbicidal effect grade (Stellaria media [4]): 0 (Herbicidal ratio of 5% or lower (almost no effect)) | Q: Galium spurium, herbicidal effect grade (Galium spurium [5]): 0 (Herbicidal ratio of 5% or lower (almost no effect)) | R: Veronica persica, herbicidal effect grade (Veronica persica [6]): 0 (Herbicidal ratio of 5% or lower (almost no effect)) | c: corn, effect grade on crop (corn): 0 (Herbicidal ratio of 5% or lower (almost no effect)) | d: soybean, effect grade on crop (soybean): 0 (Herbicidal ratio of 5% or lower (almost no effect)) | b: directly sowed rice plant, effect grade on crop (rice): 5 (Herbicidal ratio of 90% or more (almost completely withered)) | f: beet, effect grade on crop (beet [7]): 0 (Herbicidal ratio of 5% or lower (almost no effect)) | g: rapeseed, effect grade on crop (rapeseed): 0 (Herbicidal ratio of 5% or lower (almost no effect)) | F: Digitaria ciliaris, herbicidal effect (criteria 0-5) (Digitaria ciliaris [8]): 5 (Herbicidal ratio of 90% or more (almost completely withered)) | G: Setaria viridis, herbicidal effect (criteria 0-5) (Setaria viridis): 5 (Herbicidal ratio of 90% or more (almost completely withered)) | I: Avena fatua, herbicidal effect (criteria 0-5) (Avena fatua): 5 (Herbicidal ratio of 90% or more (almost completely withered)) | L: Apera spica-venti, herbicidal effect (criteria 0-5) (Apera spica-venti): 5 (Herbicidal ratio of 90% or more (almost completely withered)) | M: Abutilon theophrasti, herbicidal effect (criteria 0-5) (Abutilon theophrasti): 4 (Herbicidal ratio of 70% or higher and lower than 90%) | O: Chenopodium album, herbicidal effect (criteria 0-5) (Chenopodium album): 3 (Herbicidal ratio of 40% or higher and lower than 70%) | P: Stellaria media, herbicidal effect (criteria 0-5) (Stellaria media [9]): 0 (Herbicidal ratio of 5% or lower (almost no effect)) | Q: Galium spurium, herbicidal effect (criteria 0-5) (Galium spurium [10]): 0 (Herbicidal ratio of 5% or lower (almost no effect)) | R: Veronica persica, herbicidal effect (criteria 0-5) (Veronica persica [11]): 2 (Herbicidal ratio of 20% or higher and lower than 40%) | b: directly sowed rice plant, effect on crop (criteria 0-5) (rice plant): 5 (Herbicidal ratio of 90% or more (almost completely withered)) | e: wheat, effect on crop (criteria 0-5) (wheat): 3 (Herbicidal ratio of 40% or higher and lower than 70%) | f: beet, effect on crop (criteria 0-5) (beet [12]): 0 (Herbicidal ratio of 5% or lower (almost no effect))
